The values that follow come from patent publication US20090143761A1, “AGENT DELIVERY SYSTEM AND USES OF SAME” (T[…] COMPANY, LLC, priority 2005, published 2009).

Entries after “also recorded” stand apart in the source; their conditions may differ.

The conditions of data set [1]: oral administration of tablets; cited from earlier work.
For data set [2] the following is noted: excised rabbit pinna skin; cited from earlier work.
Data set [3] in a line: Calculated diffusion and mass transfer coefficients in membranes of different thickness. The following applies: Urea in 5.15% agar gel vs Urea, 1 mm layer. An excerpt:
A simplified model can be developed to account for the transport of molecules out of the skin and through the sampling chamber. The model consists of diffusion through the skin, which can be approximated by diffusion through a semi-porous protein matrix membrane and then diffusion into a bulk solution. The concentration profile in the membrane and in the bulk solution may not be consistent, in which case a partition coefficient can be used to relate the transport of molecules from the membrane to the bulk solution. The use of an iontophoretic device can, by nature of the process, produce an electric field. […]
The bulk phase diffusivity needs to be adjusted to take into account the winding path through a porous matrix. The effective diffusivity is calculated from the bulk diffusivity, void fraction, and the tortuosity. The mass transfer coefficient can be calculated from the effective diffusivity and the membrane thickness. The flux of molecules in the presence of an electrical charge can be calculated with the Nernst-plank equation.
To illustrate the effect of diffusion through a porous matrix a few calculations were performed as an example. Assuming a protein layer of 1 mm, the mass transfer coefficients were calculated for Urea (0.88 microns/s) and for Urea in a 5.15% agar gel (0.47 microns/s). […]

For data set [4] the following is noted: 52.8 mM and 105.6 mM donor.
For data set [5] the following is noted: lithium concentration of 158.4 mM, iontophoresis, mice.
Method: First, the total charge delivered to the animal during the course of the experiment was determined.
The animal model employed was that of the SKH-1 male mouse, 6 weeks old, obtained from Charles River Laboratories. The mice arrived the morning of the experiments and were used within three hours of their arrival.
Due to the fragility of the iontophoresis pad application and electrode attachment, the mice had to be restrained during the experiments. To accomplish this, a commercial mouse restrainer was purchased from Kent Scientific and modified with two holders on either side of the restrainer. The holders were placed over existing access holes in the restrainer such that spring loaded electrodes could be positioned within the holder.
The mice were given a low dosage of Halothane to allow them to be weighed and positioned in the restrainer so that there was minimal risk of the electrode pads being kicked or scraped off of the patch as the mouse was being positioned. The Halothane was administered by saturating a paper towel that had been placed at the bottom of a glass desiccator jar. The jar was placed in an exhaust fume hood prior to opening the Halothane bottle. This gave a saturated Halothane environment, in a well-ventilated area, and allowed the effects of the anesthesia to be closely monitored. […]
The conditions of data set [6]: in vivo; cited from earlier work.
The conditions of data set [7]: patients who are prescribed lithium; cited from earlier work.
The test system of another data set is humans. The following applies: cited from earlier work.
The conditions of data set [8]: cyclic voltammagrams.
The conditions of data set [9]: cited from earlier work.
The nature of data set [10]: Stability of primaquine after exposure to iontophoresis, thin layer chromatography. The conditions noted are these: silica gel TLC, n-butanol:acetic acid:water (5:3:2).
The nature of data set [11]: In-vitro transdermal delivery of primaquine patch across human epidermal membranes with iontophoresis.
In the next data set the target is T1, plasma cholinesterase (Homo sapiens, UniProt P06276).
T1 construct: confirming the capacity of the BTC substrate to detect cholinesterase activity in plasma; from tissue; host or cells: plasma
T1 sequence (P06276 29-602): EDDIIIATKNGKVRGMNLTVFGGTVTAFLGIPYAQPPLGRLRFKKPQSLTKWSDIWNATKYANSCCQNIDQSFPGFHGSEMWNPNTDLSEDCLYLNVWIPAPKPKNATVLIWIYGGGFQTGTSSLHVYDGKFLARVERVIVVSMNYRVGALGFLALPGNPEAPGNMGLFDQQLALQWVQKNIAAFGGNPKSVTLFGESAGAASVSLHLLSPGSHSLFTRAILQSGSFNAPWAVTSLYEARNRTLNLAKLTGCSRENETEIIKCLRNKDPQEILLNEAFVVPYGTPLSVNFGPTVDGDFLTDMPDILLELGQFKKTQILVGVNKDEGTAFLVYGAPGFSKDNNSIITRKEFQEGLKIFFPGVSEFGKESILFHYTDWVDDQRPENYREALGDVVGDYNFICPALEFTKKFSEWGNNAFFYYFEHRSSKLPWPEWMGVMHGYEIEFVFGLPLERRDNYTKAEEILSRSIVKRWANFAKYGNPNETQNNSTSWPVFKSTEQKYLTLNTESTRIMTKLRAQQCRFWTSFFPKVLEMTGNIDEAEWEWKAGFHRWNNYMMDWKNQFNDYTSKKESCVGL
Briefly: Selective inhibition of cholinesterase activity in plasma samples. The format is biochemical. The following applies: quinidine 20 μM; BTC vs other substrate.

In a further data set the test system is Uremic rats. The conditions noted are these: intermittent administration; cited from earlier work.

In the case of `COC(=O)C(c1ccccc1)C1CCCCN1` (stereo not shown) [Methylphenidate], the bioavailability result in data set [1] is reported as “approximately 30%”. As for `NC(=O)[C@@H]1CCCN1C(=O)[C@H](Cc1cnc[nH]1)NC(=O)[C@@H]1CCC(=O)N1` [TRH, Thyrotropin-releasing hormone], in [2], the “pulsed vs continuous current iontophoretic flux” value was “the pulsed iontophoretic flux exceeded that obtained with a continuous current”. With `NC(N)=O` [Urea], the “decrease of mass transfer by addition of a gel matrix” value in [3] is reported as 47%. On to `O=C([O-])[O-].[Li+].[Li+]` [lithium, lithium carbonate], for which the “effect of donor compartment lithium carbonate concentration on receiver compartment lithium concentration” value in data set [4] is reported as “caused an equivalent increase in the receiver compartment lithium concentration”. Further, the “serum concentration of lithium” value in data set [5] was “approximately 0.2 mM”. Moreover, in [6], the plasma elimination half-life is 12 to 27 h. The “patients who experience some adverse effects” value in [7] was “More than 80%”. Turning to `CNC1(C)C2CCC(C2)C1(C)C` (stereo not shown) [mecamylamine, Mecamylamine], the “effect on self-reported effects of alcohol” value in the data set with humans was “reduces the self-reported stimulant and euphoric effects of alcohol”. For `CN1CCCC1c1cccnc1` (stereo not shown) [nicotine], in [8], the “voltage at which nicotine is oxidized” value is approximately 1 volt. Consider `COc1cc(NC(C)CCCN)c2ncccc2c1` (stereo not shown) [primaquine], for which, in [9] (passive delivery), the “share of the 10 mg dose delivered passively each hour” value is listed as “Approximately 5%”. Besides, in data set [9] (within 24 hours, to achieve therapeutic plasma concentrations), the “amount of primaquine delivered transdermally” value is 10 mg. Moreover, the “stability of the primaquine molecule after exposure to iontophoresis (TLC of receptor compartment contents)” value in [10] was “intact primaquine is present; also recorded: there is more than one species of molecule present”. Also, the “passive diffusion of primaquine before and after iontophoresis” value in [11] (epidermal membrane, receptor PBS pH 7.4, no current applied) is “Minimal passive diffusion”. In [11] (in 40 minutes), the “amount of primaquine delivered using electrotransport” value is 160 µg.

Regarding `C=C[C@H]1C[N@@]2CC[C@H]1C[C@@H]2[C@@H](O)c1ccnc2ccc(OC)cc12` [quinidine], the “inhibitory effect on cholinesterase activity in plasma samples” value against plasma cholinesterase is “the inhibitory effect was observed only when BTC was used”. “PTH(1-37): parathyroid hormone fragment given intermittently to Uremic rats (AVSEIQLMHNLGKHLASVERMQWLRKKLQDVHNFVSL; Parathyroid hormone; UniProt P04089 32-68, looked up, fragment)”: in the data set with Uremic rats, the “effect on growth and bone mineral density” value was “improves growth and bone mineral density”.
